In patent publication US9034921B2, “Diphenylmethane derivatives as SGLT2 inhibitors” (GREEN CROSS CORPORATION, priority 2011, dated 2015):

The compounds below were run against human SGLT2 (Homo sapiens (Human), UniProt P31639) (assay: Inhibitory effects on human SGLT2 activities (14C-AMG uptake, sodium-dependent glucose transport assay)). Conditions: CHO cells stably expressing hSGLT2, 37° C., 2 h, single determinations.
Format: cell-based
In short: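 CHO cells stably expressing hSGLT2 were preincubated 10 min at 37 °C in choline (Na+-free) buffer, then exposed 2 h at 37 °C to compound in Na+ uptake buffer with 8 μM 14C-AMG and 1 mM unlabeled AMG. Radioactivity was scintillation counted; IC50 came from nonlinear regression.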

human SGLT2, sequence (P31639 whole entry): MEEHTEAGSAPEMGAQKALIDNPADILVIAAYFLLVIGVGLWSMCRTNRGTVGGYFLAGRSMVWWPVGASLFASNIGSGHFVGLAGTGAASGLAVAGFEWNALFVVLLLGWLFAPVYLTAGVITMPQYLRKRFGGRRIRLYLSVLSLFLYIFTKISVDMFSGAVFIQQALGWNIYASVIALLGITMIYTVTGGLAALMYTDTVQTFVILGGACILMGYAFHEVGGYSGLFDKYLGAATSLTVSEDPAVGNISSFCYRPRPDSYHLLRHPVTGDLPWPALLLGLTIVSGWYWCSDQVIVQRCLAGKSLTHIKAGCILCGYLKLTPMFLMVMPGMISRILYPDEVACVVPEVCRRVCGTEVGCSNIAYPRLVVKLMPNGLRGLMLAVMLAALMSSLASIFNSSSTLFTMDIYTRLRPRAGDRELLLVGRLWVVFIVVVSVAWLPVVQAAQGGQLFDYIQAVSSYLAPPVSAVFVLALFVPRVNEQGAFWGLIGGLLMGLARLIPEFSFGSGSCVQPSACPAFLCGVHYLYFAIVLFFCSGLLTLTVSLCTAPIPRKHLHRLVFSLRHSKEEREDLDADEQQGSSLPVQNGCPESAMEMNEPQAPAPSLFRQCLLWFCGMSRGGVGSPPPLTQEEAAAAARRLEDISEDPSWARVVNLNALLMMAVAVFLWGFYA

Compound | IC50
COc1ccc(Cc2cc([C@@H]3O[C@H](CO)[C@@H](O)[C@H](O)[C@H]3O)c3c(c2Cl)C(C)CO3)cc1 (stereo partly drawn) [Example E216, (2S,3R,4R,5S,6R)-2-(4-Chloro-5-(4-methoxybenzyl)-3-methyl-2,3-dihydrobenzofuran-7-yl)-6-(hydroxymethyl)tetrahydro-2H-pyran-3,4,5-triol] | 1.22 nM
CCc1ccc(Cc2cc([C@@H]3O[C@H](CO)[C@@H](O)[C@H](O)[C@H]3O)c3c(c2Cl)C(C)(C)CO3)cc1 [Example E217, (2S,3R,4R,5S,6R)-2-(4-Chloro-5-(4-ethylbenzyl)-3,3-dimethyl-2,3-dihydrobenzofuran-7-yl)-6-(hydroxymethyl)tetrahydro-2H-pyran-3,4,5-triol] | 1.76 nM
COc1ccc(Cc2cc([C@@H]3O[C@H](CO)[C@@H](O)[C@H](O)[C@H]3O)c3c(c2Cl)C(C)(C)CO3)cc1 [Example E218, (2S,3R,4R,5S,6R)-2-(4-Chloro-5-(4-methoxybenzyl)-3,3-dimethyl-2,3-dihydrobenzofuran-7-yl)-6-(hydroxymethyl)tetrahydro-2H-pyran-3,4,5-triol] | 4.66 nM
COc1ccc(Cc2cc([C@@H]3O[C@H](CO)[C@@H](O)[C@H](O)[C@H]3O)c3c(c2Cl)CC(C)(C)O3)cc1 [Example E219, (2S,3R,4R,5S,6R)-2-(4-Chloro-5-(4-methoxybenzyl)-2,2-dimethyl-2,3-dihydrobenzofuran-7-yl)-6-(hydroxymethyl)tetrahydro-2H-pyran-3,4,5-triol] | 1.61 nM
CCOc1ccc(Cc2cc([C@@H]3O[C@H](CO)[C@@H](O)[C@H](O)[C@H]3O)c3c(c2Cl)CC(C)(C)O3)cc1 [Example E220, (2S,3R,4R,5S,6R)-2-(4-Chloro-5-(4-ethoxybenzyl)-2,2-dimethyl-2,3-dihydrobenzofuran-7-yl)-6-(hydroxymethyl)tetrahydro-2H-pyran-3,4,5-triol] | 1.27 nM
OC[C@H]1O[C@@H](c2ccc(Cl)c(Cc3ccc(N4CCCC4)cc3)c2)[C@H](O)[C@@H](O)[C@@H]1O [Example E221] | 2.17 nM
CCOc1ccc(Cc2cc([C@@H]3O[C@H](CO)[C@@H](O)[C@H](O)[C@H]3O)c3c(c2Cl)C(C)CO3)cc1 (stereo partly drawn) [Example E222, (2S,3R,4R,5S,6R)-2-(4-Chloro-5-(4-ethoxybenzyl)-3-methyl-2,3-dihydrobenzofuran-7-yl)-6-(hydroxymethyl)-tetrahydro-2H-pyran-3,4,5-triol] | 1.99 nM
CCOc1ccc(Cc2cc([C@@H]3O[C@H](CO)[C@@H](O)[C@H](O)[C@H]3O)c3c(c2Cl)C(C)(C)CO3)cc1 [Example E223, (2S,3R,4R,5S,6R)-2-(4-Chloro-5-(4-ethoxybenzyl)-3,3-dimethyl-2,3-dihydrobenzofuran-7-yl)-6-(hydroxymethyl)-tetrahydro-2H-pyran-3,4,5-triol] | 4.16 nM
CCOc1ccc(Cc2cc([C@@H]3O[C@H](CO)[C@@H](O)[C@H](O)[C@H]3O)c3c(c2Cl)OCC3C)cc1 (stereo partly drawn) [Example E224, (2S,3R,4R,5S,6R)-2-(7-Chloro-6-(4-ethoxybenzyl)-3-methyl-2,3-dihydrobenzofuran-4-yl)-6-(hydroxymethyl)-tetrahydro-2H-pyran-3,4,5-triol] | 0.867 nM
CCOc1ccc(Cc2cc([C@@H]3O[C@H](CO)[C@@H](O)[C@H](O)[C@H]3O)c3c(c2Cl)OCC3(C)C)cc1 [Example E225, (2S,3R,4R,5S,6R)-2-(7-Chloro-6-(4-ethoxybenzyl)-3,3-dimethyl-2,3-dihydrobenzofuran-4-yl)-6-(hydroxymethyl)-tetrahydro-2H-pyran-3,4,5-triol] | 1.82 nM
CCOc1ccc(Cc2cc([C@@H]3O[C@H](CO)[C@@H](O)[C@H](O)[C@H]3O)c3c(c2Cl)OCC3=O)cc1 [Example E226] | 10.5 nM
CCOc1ccc(Cc2cc([C@@H]3O[C@H](CO)[C@@H](O)[C@H](O)[C@H]3O)c3c(c2Cl)OCC3OC)cc1 (stereo partly drawn) [Example E227, (2S,3R,4R,5S,6R)-2-(7-Chloro-6-(4-ethoxybenzyl)-3-methoxy-2,3-dihydrobenzofuran-4-yl)-6-(hydroxymethyl)-tetrahydro-2H-pyran-3,4,5-triol] | 8.99 nM
CCCc1c(Cc2ccc(OCC)cc2)cc([C@@H]2O[C@H](CO)[C@@H](O)[C@H](O)[C@H]2O)c2c1OCC2 [Example E229, (2S,3R,4R,5S,6R)-2-(6-(4-Ethoxybenzyl)-7-propyl-2,3-dihydrobenzofuran-4-yl)-6-(hydroxymethyl)-tetrahydro-2H-pyran-3,4,5-triol] | 5.6 nM
OC[C@H]1O[C@@H](c2cc(Cc3ccc(OC4CCC4)cc3)c(Cl)c3c2CCO3)[C@H](O)[C@@H](O)[C@@H]1O [Example E234, (2S,3R,4R,5S,6R)-2-(7-Chloro-6-(4-cyclobutoxybenzyl)-2,3-dihydrobenzofuran-4-yl)-6-(hydroxymethyl)-tetrahydro-2H-pyran-3,4,5-triol] | 2.82 nM

Continued, values first:

IC50 | Compound
2.49 nM | OC[C@H]1O[C@@H](c2cc(Cc3ccc4c(c3)NCCC4)c(Cl)c3c2CCO3)[C@H](O)[C@@H](O)[C@@H]1O [Example E230, (2S,3R,4R,5S,6R)-2-(7-Chloro-6-((1,2,3,4-tetrahydroquinolin-7-yl)methyl)-2,3-dihydrobenzofuran-4-yl)-6-(hydroxymethyl)-tetrahydro-2H-pyran-3,4,5-triol]
5.56 nM | OC[C@H]1O[C@@H](c2cc(Cc3ccc4c(c3)NCCO4)c(Cl)c3c2CCO3)[C@H](O)[C@@H](O)[C@@H]1O [Example E231, (2S,3R,4R,5S,6R)-2-(7-Chloro-6-((3,4-dihydro-2H-benzo[b][1,4]oxazin-6-yl)methyl)-2,3-dihydrobenzofuran-4-yl)-6-(hydroxymethyl)-tetrahydro-2H-pyran-3,4,5-triol]
1.6 nM | OC[C@H]1O[C@@H](c2cc(Cc3ccc(OC4CCCC4)cc3)c(Cl)c3c2CCO3)[C@H](O)[C@@H](O)[C@@H]1O [Example E232, (2S,3R,4R,5S,6R)-2-(7-Chloro-6-(4-(cyclopentyloxy)benzyl)-2,3-dihydrobenzofuran-4-yl)-6-(hydroxymethyl)-tetrahydro-2H-pyran-3,4,5-triol]
1.16 nM | OC[C@H]1O[C@@H](c2cc(Cc3ccc(C4CCCC4)cc3)c(Cl)c3c2CCO3)[C@H](O)[C@@H](O)[C@@H]1O [Example E233, (2S,3R,4R,5S,6R)-2-(7-Chloro-6-(4-cyclopentylbenzyl)-2,3-dihydrobenzofuran-4-yl)-6-(hydroxymethyl)-tetrahydro-2H-pyran-3,4,5-triol]
0.734 nM | COc1ccc(Cc2cc([C@@H]3O[C@H](CO)[C@@H](O)[C@H](O)[C@H]3O)c3c(c2C(F)F)CCC3)cc1 [Example E237, (2S,3R,4R,5S,6R)-2-(7-(Difluoromethyl)-6-(4-methoxybenzyl)-2,3-dihydro-1H-inden-4-yl)-6-(hydroxymethyl)tetrahydro-2H-pyran-3,4,5-triol]
0.627 nM | CCc1ccc(Cc2cc([C@@H]3O[C@H](CO)[C@@H](O)[C@H](O)[C@H]3O)c3c(c2Cl)CCC3)cc1 [Example E238, (2S,3R,4R,5S,6R)-2-(7-Chloro-6-(4-ethylbenzyl)-2,3-dihydro-1H-inden-4-yl)-6-(hydroxymethyl)tetrahydro-2H-pyran-3,4,5-triol]
0.718 nM | CCc1ccc(Cc2cc([C@@H]3O[C@H](CO)[C@@H](O)[C@H](O)[C@H]3O)c3c(c2C(F)F)CCC3)cc1 [Example E239, (2S,3R,4R,5S,6R)-2-(7-(Difluoromethyl)-6-(4-ethylbenzyl)-2,3-dihydro-1H-inden-4-yl)-6-(hydroxymethyl)tetrahydro-2H-pyran-3,4,5-triol]
0.902 nM | COc1ccc(Cc2cc([C@@H]3O[C@H](CO)[C@@H](O)[C@H](O)[C@H]3O)c3c(c2Cl)SCC3)cc1 [Example E241, (2S,3R,4R,5S,6R)-2-(7-Chloro-6-(4-methoxybenzyl)-2,3-dihydrobenzo[b]thiophen-4-yl)-6-(hydroxymethyl)tetrahydro-2H-pyran-3,4,5-triol]
0.552 nM | COc1ccc(Cc2cc([C@@H]3O[C@H](CO)[C@@H](O)[C@H](O)[C@H]3O)c3c(c2Cl)SCCC3)cc1 [Example E242, (2S,3R,4R,5S,6R)-2-(8-Chloro-7-(4-methoxybenzyl)thiochroman-5-yl)-6-(hydroxymethyl)tetrahydro-2H-pyran-3,4,5-triol]
